Laboratory results as given in patent publication US10752628B2, “Compounds and methods for treating synovial sarcomas” (THE BROAD INSTITUTE, INC., priority 2015, dated 2020).

What was measured:
Format in all cases: cell-based, human
[1] = tested on: BAF47 within the BAF complex; assay: anti-Brg immunoprecipitation of BAF complexes followed by anti-BAF47 western blot in Aska cells; details: 48 hours at 16 μM, relative to DMSO control
Protocol: Briefly, naïve, unmodified Aska SS cells were treated for 48 hours at 16 μM concentration of all 5 positive hit compounds (as well as negative compounds for controls). The western blot reflects IPs of BAF complexes highlighting increased incorporation/stability of BAF47 relative to DMSO control. The bar graph highlights levels of BAF47 (measured via western blot quantitative densitometry) over n=3 experiments for each compound, including testing against three other negative compounds.
(§1) All cell types were grown under standard conditions and lysed and homogenized in Buffer A (10 mM Hepes (pH 7.6), 25 mM KCl, 1 mM EDTA, 10% glycerol, 1 mM DTT, and protease inhibitors (complete mini tablets (Roche) supplemented with 1 mM PMSF) on ice. Nuclei were sedimented by centrifugation (1,000×g), resuspended in Buffer C (10 mM Hepes (pH 7.6), 3 mM MgCl2, 100 mM KCl, 0.1 mM EDTA, 10% glycerol, 1 mM DTT, and protease inhibitors), and lysed by the addition of ammonium sulfate to a final concentration of 0.3 M. Soluble nuclear proteins were separated by the insoluble chromatin fraction by ultracentrifugation (100,000×g) and precipitated with […] ammonium sulfate for 20 min on ice. Protein precipitate was isolated by ultracentrifugation (100,000×g), and resuspended in IP buffer (150 mM NaCl, 50 mM Tris-HCl (pH 8.0), 1% NonidetP-40, 0.5% deoxycholate, 1 mM DTT, 1 mM PMSF with protease inhibitors) for immunoprecipitation analyses or HEMG-0 buffer (25 mM HEPES pH 7.9, 0.1 mM EDTA, 12.5 mM MgCl2, 100 mM KCl, freshly supplemented with DTT and PMSF) for glycerol gradient analyses.
(§2) Nuclear extracts were resuspended in IP buffer and precleared for 30 minutes at 4 degrees C. using Protein G/A Sepharose beads (GE Healthcare). The protein concentration was determined using Bradford assay and adjusted to a final volume of 250 μL at a final concentration of 1.5 mg/mL with IP buffer. Each IP was incubated with 2.5 μg of antibody overnight at 4° C. and then for 2 h with 20 μL Protein A/G Sepharose beads. The beads were washed four times at room temperature with 1 mL IP buffer and resuspended in 20 μL 2× gel loading buffer (4×LDS Buffer; Invitrogen)+DTT.

[2] = tested on: BAF47 within the BAF complex; assay: BAF155 immunoprecipitation and western blot for BAF47 in Aska cells; details: for BAF47 stabilization within the BAF complex (BAF155 immunoprecipitation): Aska cells, twenty-four hours, single 30 micromolar dose
Protocol: These include resynthesized positive hits for Compounds 5-6.
FIG. 8 comprises a series of images and graph illustrating the activity of Compound 5 in Yamato cells. Briefly, Yamato cells were treated with 30 μM compound for 24 hours over n=5 replicates. The graph depicts levels of BAF47 in DMSO treated vs Compound 5-treated cells.
as §1, §2

[3] = tested on: Aska synovial sarcoma cells; assay: Synovial sarcoma cell viability by CellTiter Glo luminescence
Protocol: FIGS. 15A-15C comprise a set of graphs illustrating the finding that compounds of the invention reduce synovial sarcoma cell viability as measured by CellTiter Glog luminescence.
The effect of compounds of the invention on synovial sarcoma cell viability was assessed as measured by CellTiter Glo® luminescence (FIGS. 15A-15B). Briefly, cells were plated under standard conditions and allowed to grow to 75% confluence prior to treatment with compounds. CellTiterGlo reagent was used to measure cell viability.

[4] = tested on: BAF47; assay: Time and dose study of Compound 11 on BAF47 stability in Aska cells; details: 0-30 micromolar, 24, 48 and 72 hours
Protocol: FIG. 9 comprises a set of bar graphs illustrating the effects of Compound 11 (illustrated), the lead compound lacking the hydroxyl group, as a function of time and dose in Aska cells.
Compound 11 was added at doses from 0-30 micromolar, and the results monitored at 24, 48, and 72 hours after treatment.

SMILES | BAF47 stabilization (anti-Brg IP, anti-BAF47 western blot) [1] | BAF47 stabilization within the BAF complex (BAF155 immunoprecipitation) [2] | BAF47 stabilization (western blot image, FIG. 8 lower panel) ([2]; Aska-SS cells upon treatment with Compound 5) | Cell viability (CellTiter Glo luminescence) [3] | BAF47 stability as a function of time and dose [4]
C[C@@H]1CN([C@H](C)CO)C(=O)c2cccc(NC(=O)c3ccc(-c4nccs4)cc3)c2O[C@@H]1CN(C)Cc1ccc(C(=O)Nc2ccccc2N)cc1 [Compound 1, N-(2-aminophenyl)-4-(((((2S,3R)-5-((R)-1-hydroxypropan-2-yl)-3-methyl-6-oxo-10-(4-(thiazol-2-yl)benzamido)-3,4,5,6-tetrahydro-2H-benzo[b][1,5]oxazocin-2-yl)methyl)(methyl)amino)methyl)benzamide] | stabilized BAF47 | – | – | – | –
C[C@@H]1CN([C@H](C)CO)C(=O)c2cc(NC(=O)NC3CCCCC3)ccc2O[C@@H]1CN(C)S(=O)(=O)c1cccs1 [Compound 3, N-(((2S,3R)-8-(3-cyclohexylureido)-5-((R)-1-hydroxypropan-2-yl)-3-methyl-6-oxo-3,4,5,6-tetrahydro-2H-benzo[b][1,5]oxazocin-2-yl)methyl)-N-methylthiophene-2-sulfonamide] | stabilized BAF47 | – | – | – | –
COc1ccc2c3c([nH]c2c1)[C@@H](CO)N(Cc1ccccc1F)CC31CCN(C(=O)C2CCC2)CC1 [Compound 5, (S)-cyclobutyl(2′-(2-fluorobenzyl)-1′-(hydroxymethyl)-7′-methoxy-1′,2′,3′,9′-tetrahydrospiro[piperidine-4,4′-pyrido[3,4-b]indol]-1-yl)methanone] | stabilized BAF47 | stabilized BAF47 within the BAF complex | stabilization of BAF47 | resulted in cell toxicity | –
COc1ccc2c3c([nH]c2c1)CN(Cc1ccccc1F)CC31CCN(C(=O)C2CCC2)CC1 [Compound 11, cyclobutyl(2′-(2-fluorobenzyl)-7′-methoxy-1′,2′,3′,9′-tetrahydrospiro[piperidine-4,4′-pyrido[3,4-b]indol]-1-yl)methanone] | – | stabilized BAF47 within the BAF complex | – | – | increases BAF47 stability in dose-dependent manner
C[C@@H]1CCCCO[C@@H](CN(C)Cc2ccc(C(=O)Nc3ccccc3N)cc2)[C@H]2C[C@@H](CO)N(C2)C(=O)c2cc(N(C)C)ccc2O1 [Compound 8, N-(2-aminophenyl)-4-(((((13S,15R,5R,11R)-35-(dimethylamino)-15-(hydroxymethyl)-5-methyl-2-oxo-4,10-dioxa-1(1,3)-pyrrolidina-3(1,2)-benzenacycloundecaphane-11-yl)methyl)(methyl)amino)methyl)benzamide] | stabilized BAF47 | – | – | – | –
